molecular target: human TrkA receptor (Homo sapiens (Human), UniProt P04629); assay: DiscoverX PathHunter TrkA functional assay (NGF-stimulated U2OS cells); assay type: cell-based; details: U2OS cells expressing human TrkA-PK, Shc1-EA and p75NTR; compound 1 h, then NGF at ~80% of maximal response for 3 h; luminescence
Sequence (P04629 33-796): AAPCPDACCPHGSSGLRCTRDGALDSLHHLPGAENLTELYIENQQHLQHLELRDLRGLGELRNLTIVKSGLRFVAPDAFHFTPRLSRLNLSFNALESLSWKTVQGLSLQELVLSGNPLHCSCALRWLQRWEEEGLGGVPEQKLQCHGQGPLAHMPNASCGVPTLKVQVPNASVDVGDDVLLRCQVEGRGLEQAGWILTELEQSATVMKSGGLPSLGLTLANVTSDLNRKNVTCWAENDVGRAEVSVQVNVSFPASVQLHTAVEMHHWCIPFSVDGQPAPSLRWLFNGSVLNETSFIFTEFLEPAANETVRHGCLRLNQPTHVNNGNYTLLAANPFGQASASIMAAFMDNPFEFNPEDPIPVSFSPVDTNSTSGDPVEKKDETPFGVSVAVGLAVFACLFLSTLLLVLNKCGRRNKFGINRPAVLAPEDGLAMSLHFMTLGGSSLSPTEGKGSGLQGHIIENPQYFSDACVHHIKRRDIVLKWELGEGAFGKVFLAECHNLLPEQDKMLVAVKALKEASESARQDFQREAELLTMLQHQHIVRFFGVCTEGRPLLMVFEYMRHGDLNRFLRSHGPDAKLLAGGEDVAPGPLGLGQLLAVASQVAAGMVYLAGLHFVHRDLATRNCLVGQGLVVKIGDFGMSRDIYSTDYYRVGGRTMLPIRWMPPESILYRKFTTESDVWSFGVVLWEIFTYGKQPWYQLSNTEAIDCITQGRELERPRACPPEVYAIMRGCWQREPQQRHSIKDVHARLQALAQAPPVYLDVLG

| SMILES | IC50 |
| --- | --- |
| Cn1ccc(-c2cc(C(=O)Nc3cnc(N)nc3-c3ccccc3)c(F)cc2C(F)(F)F)n1 [Example 212, N-(2-amino-4-phenylpyrimidin-5-yl)-2-fluoro-5-(1-methyl-1H-pyrazol-3-yl)-4-(trifluoromethyl)benzamide] | 2.8 nM |
| Cn1ccc(-c2cc(C(=O)Nc3cnc(CN4CCCCC4=O)nc3-c3ccccc3)c(F)cc2C(F)(F)F)n1 [Example 220, 2-fluoro-5-(1-methyl-1H-pyrazol-3-yl)-N-(2-((2-oxopiperidin-1-yl)methyl)-4-phenylpyrimidin-5-yl)-4-(trifluoromethyl)benzamide] | 1 nM |
| O=C(Nc1cc(N2CCOCC2)cnc1-c1ccccc1)c1ccc(C(F)(F)F)cc1Cl [Example 1, 2-Chloro-N-(5-morpholino-2-phenylpyridin-3-yl)-4-(trifluoromethyl)benzamide] | 480 nM |
| Cn1ccc(-c2cc(C(=O)Nc3cnc(CNC(=O)[C@@H]4COCCN4)nc3-c3ccccc3)c(F)cc2C(F)(F)F)n1 [Example 74, (S)-N-((5-(2-fluoro-5-(1-methyl-1H-pyrazol-3-yl)-4-(trifluoromethyl)benzamido)-4-phenylpyrimidin-2-yl)methyl)morpholine-3-carboxamide] | 2 nM |
| Cn1ccc(-c2cc(C(=O)Nc3ncccc3-c3ccccc3)ccc2C(F)(F)F)n1 [Example 22, 3-(1-methyl-1H-pyrazol-3-yl)-N-(3-phenylpyridin-2-yl)-4-(trifluoromethyl)benzamide] | 64 nM |
| Cn1ccc(-c2cc(C(=O)Nc3cnc(CC(=O)NC[C@@H]4CCCO4)nc3-c3ccccc3)c(F)cc2C(F)(F)F)n1 [Example 107, (S)-2-fluoro-5-(1-methyl-1H-pyrazol-3-yl)-N-(2-(2-oxo-2-(((tetrahydrofuran-2-yl)methyl)amino)ethyl)-4-phenylpyrimidin-5-yl)-4-(trifluoromethyl)benzamide] | 1.2 nM |
| Cn1ccc(-c2cc(C(=O)Nc3cnc(CC(N)=O)cc3-c3ccccc3)c(F)cc2C(F)(F)F)n1 [Example 101, N-(6-(2-Amino-2-oxoethyl)-4-phenylpyridin-3-yl)-2-fluoro-5-(1-methyl-1H-pyrazol-3-yl)-4-(trifluoromethyl)benzamide] | 1.1 nM |
| Cc1cc(-c2ccccc2)c(NC(=O)c2ccc(OC(F)(F)F)c(-c3ccn(C)n3)c2)cn1 [Example 3, 3-(1-Methyl-1H-pyrazol-3-yl)-N-(6-methyl-4-phenylpyridin-3-yl)-4-(trifluoromethoxy)benzamide] | 54 nM |
| Cn1ccc(-c2cc(C(=O)Nc3cnc(CC(=O)NC4CCC4)nc3-c3ccccc3)c(F)cc2C(F)(F)F)n1 [Example 113, N-(2-(2-(cyclobutylamino)-2-oxoethyl)-4-phenylpyrimidin-5-yl)-2-fluoro-5-(1-methyl-1H-pyrazol-3-yl)-4-(trifluoromethyl)benzamide] | 1.3 nM |
| CCN(C)C(=O)Cc1ncc(NC(=O)c2cc(-c3ccn(C)n3)c(C(F)(F)F)cc2F)c(-c2ccccc2)n1 [Example 115, N-(2-(2-(ethyl(methyl)amino)-2-oxoethyl)-4-phenylpyrimidin-5-yl)-2-fluoro-5-(1-methyl-1H-pyrazol-3-yl)-4-(trifluoromethyl)benzamide] | 2.6 nM |
| Cn1ccc(-c2cc(C(=O)Nc3cnc(CC(N)=O)nc3-c3ccccc3)c(F)cc2C(F)(F)F)n1 [Example 99, N-(2-(2-Amino-2-oxoethyl)-4-phenylpyrimidin-5-yl)-2-fluoro-5-(1-methyl-1H-pyrazol-3-yl)-4-(trifluoromethyl)benzamide] | 0.59 nM |
| CNC(=O)Cc1ncc(NC(=O)c2cc(-c3ccn(C)n3)c(C(F)(F)F)cc2F)c(-c2ccccc2)n1 [Example 104, 2-fluoro-5-(1-methyl-1H-pyrazol-3-yl)-N-(2-(2-(methylamino)-2-oxoethyl)-4-phenylpyrimidin-5-yl)-4-(trifluoromethyl)benzamide] | 0.76 nM |
| Cc1cc(-c2ccccc2)c(NC(=O)c2ccc(C(F)(F)F)c(-c3cc[nH]n3)c2)cn1 [Example 5, N-(6-Methyl-4-phenylpyridin-3-yl)-3-(1H-pyrazol-5-yl)-4-(trifluoromethyl)benzamide] | 14 nM |
| Cn1ccc(-c2cc(C(=O)Nc3ccc(CNC(=O)C(O)CO)nc3-c3ccccc3)c(F)cc2C(F)(F)F)n1 (single isomer, unassigned) [Example 62, (S or R)-N-(6-((2,3-dihydroxypropanamido)methyl)-2-phenylpyridin-3-yl)-2-fluoro-5-(1-methyl-1H-pyrazol-3-yl)-4-(trifluoromethyl)benzamide] | 0.79 nM |
| Cc1ncc(NC(=O)c2cc(-c3ncccn3)c(Cl)cc2F)c(-c2ccccc2)n1 [Example 2, 4-Chloro-2-fluoro-N-(2-methyl-4-phenylpyrimidin-5-yl)-5-(pyrimidin-2-yl)benzamide] | 100 nM |

The remaining lines, values ahead:

| IC50 | SMILES |
| --- | --- |
| 14 nM | Cn1ccc(-c2cc(C(=O)Nc3cc4c(nc3-c3ccccn3)CCNC4=O)c(F)cc2C(F)(F)F)n1 [Example 141, 2-Fluoro-5-(1-methyl-1H-pyrazol-3-yl)-N-(5-oxo-2-(pyridin-2-yl)-5,6,7,8-tetrahydro-1,6-naphthyridin-3-yl)-4-(trifluoromethyl)benzamide] |
| 3 nM | Cn1ccc(-c2cc(C(=O)Nc3cnc(CC(=O)N4CCNCC4)nc3-c3ccccc3)c(F)cc2C(F)(F)F)n1 [Example 114, 2-fluoro-5-(1-methyl-1H-pyrazol-3-yl)-N-(2-(2-oxo-2-(piperazin-1-yl)ethyl)-4-phenylpyrimidin-5-yl)-4-(trifluoromethyl)benzamide] |
| 4300 nM | Cc1ncc(NC(=O)c2ccc(C)c(F)c2F)c(-c2ccccc2)n1 [Example 8, 2,3-difluoro-4-methyl-N-(2-methyl-4-phenylpyrimidin-5-yl)benzamide] |
| 11 nM | CS(=O)(=O)N1CCc2nc(-c3ccccc3)c(NC(=O)c3cc(-c4ncccn4)c(C(F)(F)F)cc3F)cc2C1 [Example 149, 2-fluoro-N-(6-(methylsulfonyl)-2-phenyl-5,6,7,8-tetrahydro-1,6-naphthyridin-3-yl)-5-(pyrimidin-2-yl)-4-(trifluoromethyl)benzamide] |
| 0.51 nM | Cn1ccc(-c2cc(C(=O)Nc3cc(-c4ccc(C(N)=O)cn4)cnc3-c3ccccc3)c(F)cc2C(F)(F)F)n1 [Example 164, 5′-(2-Fluoro-5-(1-methyl-1H-pyrazol-3-yl)-4-(trifluoromethyl)benzamido)-6′-phenyl-[2,3′-bipyridine]-5-carboxamide] |
| 9.8 nM | Cn1ccc(-c2cc(C(=O)Nc3cnc(CC(N)=O)nc3-c3ccccc3)ccc2C(F)(F)F)n1 [Example 116, N-(2-(2-amino-2-oxoethyl)-4-phenylpyrimidin-5-yl)-3-(1-methyl-1H-pyrazol-3-yl)-4-(trifluoromethyl)benzamide] |
| 1.3 nM | Cn1ccc(-c2cc(C(=O)Nc3ccc(C4CN(C(=O)CO)C4)nc3-c3ccccc3)c(F)cc2C(F)(F)F)n1 [Example 206, 2-Fluoro-N-(6-(1-(2-hydroxyacetyl)azetidin-3-yl)-2-phenylpyridin-3-yl)-5-(1-methyl-1H-pyrazol-3-yl)-4-(trifluoromethyl)benzamide] |
| 2.3 nM | NC(=O)N1CCc2nc(-c3ccccc3)c(NC(=O)c3cc(-c4ncccn4)c(C(F)(F)F)cc3F)cc2C1 [Example 155, 3-(2-fluoro-5-(pyrimidin-2-yl)-4-(trifluoromethyl)benzamido)-2-phenyl-7,8-dihydro-1,6-naphthyridine-6(5H)-carboxamide] |
| 24 nM | Cc1nc(CO)c(NC(=O)c2ccc(C(F)(F)F)c(-c3ccn(C)n3)c2)c(-c2ccccc2)n1 [Example 46, N-(4-(Hydroxymethyl)-2-methyl-6-phenylpyrimidin-5-yl)-3-(1-methyl-1H-pyrazol-3-yl)-4-(trifluoromethyl)benzamide] |
| 3.5 nM | Cn1ccc(-c2cc(C(=O)Nc3cc(C4CCC(=O)N4)cnc3-c3ccccc3)c(F)cc2C(F)(F)F)n1 (single isomer, unassigned) [Example 181, (R or S)-2-Fluoro-5-(1-methyl-1H-pyrazol-3-yl)-N-(5-(5-oxopyrrolidin-2-yl)-2-phenylpyridin-3-yl)-4-(trifluoromethyl)benzamide] |
| 14 nM | CNC(=O)N1CCc2nc(-c3ccccc3)c(NC(=O)c3cc(-c4ncccn4)c(C(F)(F)F)cc3F)cc2C1 [Example 150, 3-(2-fluoro-5-(pyrimidin-2-yl)-4-(trifluoromethyl)benzamido)-N-methyl-2-phenyl-7,8-dihydro-1,6-naphthyridine-6(5H)-carboxamide] |
| 0.29 nM | CC(N)c1ccc(-c2cnc(-c3ccccc3)c(NC(=O)c3cc(-c4ccn(C)n4)c(C(F)(F)F)cc3F)c2)nc1 (stereo not shown) [Example 178, N-(5-(1-aminoethyl)-6′-phenyl-[2,3′-bipyridin]-5′-yl)-2-fluoro-5-(1-methyl-1H-pyrazol-3-yl)-4-(trifluoromethyl)benzamide] |
| 0.26 nM | Cn1ccc(-c2cc(C(=O)Nc3cc(-c4ccc(C(C)(C)O)cn4)cnc3-c3ccccc3)c(F)cc2C(F)(F)F)n1 [Example 172, 2-fluoro-N-(5-(2-hydroxypropan-2-yl)-6′-phenyl-[2,3′-bipyridin]-5′-yl)-5-(1-methyl-1H-pyrazol-3-yl)-4-(trifluoromethyl)benzamide] |
| 7.3 nM | Cn1ccc(-c2cc(C(=O)Nc3cnc(CO)nc3-c3ccccc3)ccc2C(F)(F)F)n1 [Example 35, N-(2-(Hydroxymethyl)-4-phenylpyrimidin-5-yl)-3-(1-methyl-1H-pyrazol-3-yl)-4-(trifluoromethyl)benzamide] |
| 11 nM | NC(=O)c1cnc(-c2ccccc2)c(NC(=O)c2cc(-c3ncccn3)c(C(F)(F)F)cc2F)c1 [Example 91, 5-(2-fluoro-5-(pyrimidin-2-yl)-4-(trifluoromethyl)benzamido)-6-phenylnicotinamide] |
| 1.1 nM | C[C@@H](O)C(=O)NCc1ncc(NC(=O)c2cc(-c3ccn(C)n3)c(C(F)(F)F)cc2F)c(-c2ccccc2)n1 [Example 60, (R)-2-fluoro-N-(2-((2-hydroxypropanamido)methyl)-4-phenylpyrimidin-5-yl)-5-(1-methyl-1H-pyrazol-3-yl)-4-(trifluoromethyl)benzamide] |

Source: patent US9815846B2 (Merck Sharp & Dohme Corp., priority 2014, dated 2017)
